These results are taken from patent US10004701B2, “Methods and compositions for treating infection” (UNIVERSITY OF ROCHESTER, priority 2012, dated 2018).

What all share (experiment): AK assay 384-well format, Prestwick library screening
The subject of test [1] is K. pneumoniae. It is filed as cell-based, Klebsiella pneumoniae. The following applies: 50 μM final drug concentration; for fold induction at 50 µM: Klebsiella pneumoniae, 3 h.
Test [2] concerns E. faecium. It is filed as cell-based, Enterococcus faecium. The conditions noted are these: 50 μM final drug concentration; for fold induction at 50 µM: Enterococcus faecium, 3 h.
The subject of test [3] is P. aeruginosa. It is filed as cell-based, Pseudomonas aeruginosa. The following applies: 50 μM final drug concentration; for fold induction at 50 µM: Pseudomonas aeruginosa, 3 h.
In test [4] the test system is S. aureus strain USA300-0114. It is filed as cell-based, Staphylococcus aureus. The conditions noted are these: 50 μM final drug concentration; for fold induction at 50 µM: Staphylococcus aureus, USA300, 3 h.
Test [5] relates to A. baumannii strain 98-37-09. It is filed as cell-based, Acinetobacter baumannii. The conditions noted are these: 50 μM final drug concentration; for fold induction at 50 µM: Acinetobacter baumannii, 983709, 3 h.
Test [6] deals with E. cloacae. It is filed as cell-based, Enterobacter cloacae. The conditions noted are these: 50 μM final drug concentration; for fold induction at 50 µM: Enterobacter cloacae, 3 h.
Test [7] deals with E. coli. It is filed as cell-based, Escherichia coli. The conditions noted are these: 50 μM final drug concentration; for fold induction at 50 µM: Escherichia coli, 3 h.
Setting [8] is: cutoff for positive-scoring molecules 3-fold increase, read-out: AK-based Prestwick Library Screening Results, K. pneumoniae (fold increase in extracellular AK activity).
Setting [9] is: cutoff for positive-scoring molecules 3-fold increase, read-out: AK-based Prestwick Library Screening Results, E. faecium (fold increase in extracellular AK activity).
Setting [10] is: cutoff for positive-scoring molecules 3-fold increase, read-out: AK-based Prestwick Library Screening Results, P. aeruginosa (fold increase in extracellular AK activity).
[11] abbreviates: cutoff for positive-scoring molecules 3-fold increase, read-out: AK-based Prestwick Library Screening Results, S. aureus (fold increase in extracellular AK activity).
The mark [12] stands for this setting: cutoff for positive-scoring molecules 3-fold increase, read-out: AK-based Prestwick Library Screening Results, A. baumannii (fold increase in extracellular AK activity).
Setting [13] is: cutoff for positive-scoring molecules 3-fold increase, read-out: AK-based Prestwick Library Screening Results, E. cloacae (fold increase in extracellular AK activity).
Setting [14] is: cutoff for positive-scoring molecules 3-fold increase, read-out: AK-based Prestwick Library Screening Results, E. coli (fold increase in extracellular AK activity).
[15] abbreviates: planktonic, cutoff for positive 3-fold increase, read-out: AK-based Prestwick Library Screening Results, K. pneumoniae (fold increase in extracellular AK activity).
The mark [16] stands for this setting: planktonic, cutoff for positive 3-fold increase, read-out: AK-based Prestwick Library Screening Results, E. faecium (fold increase in extracellular AK activity).
The mark [17] stands for this setting: planktonic, cutoff for positive 3-fold increase, read-out: AK-based Prestwick Library Screening Results, P. aeruginosa (fold increase in extracellular AK activity).
Where [18] appears, read: planktonic, cutoff for positive 3-fold increase, read-out: AK-based Prestwick Library Screening Results, S. aureus (fold increase in extracellular AK activity).
The mark [19] stands for this setting: planktonic, cutoff for positive 3-fold increase, read-out: AK-based Prestwick Library Screening Results, A. baumannii (fold increase in extracellular AK activity).
The mark [20] stands for this setting: planktonic, cutoff for positive 3-fold increase, read-out: AK-based Prestwick Library Screening Results, E. cloacae (fold increase in extracellular AK activity).
Where [21] appears, read: planktonic, cutoff for positive 3-fold increase, read-out: AK-based Prestwick Library Screening Results, E. coli (fold increase in extracellular AK activity).

Structures can show the parent of a compound that is named as a salt. Where two headings read alike, the source gives them in different places.

As for `CCOc1ccc2ccccc2c1C(=O)N[C@@H]1C(=O)N2[C@@H]1SC(C)(C)[C@@H]2C(=O)O` [Nafcillin sodium salt monohydrate], the fold induction at 50 µM in test [1] (setting [8]) worked out at 1; in test [2] (setting [9]), 1; in test [3] (setting [10]), 1.3; in test [4] (setting [11]) it was 6.5; in test [5] (setting [12]), 1.5; in test [6] (setting [13]), 1.4. Moreover, in test [7] (setting [14]), the fold induction at 50 µM is 1.2.

For `c1ccc2c(CC3=NCCN3)cccc2c1` [Naphazoline hydrochloride], the fold induction at 50 µM in test [1] (384-well format, cutoff for positive-scoring molecules 3-fold increase, read-out: AK-based Prestwick Library Screening Results, K. pneumoniae (increase in extracellular AK activity)) turned out to be 0.8; in test [2] (384-well format, cutoff for positive-scoring molecules 3-fold increase, read-out: AK-based Prestwick Library Screening Results, E. faecium (increase in extracellular AK activity)), 1.1; in test [3] (384-well format, cutoff for positive-scoring molecules 3-fold increase, read-out: AK-based Prestwick Library Screening Results, P. aeruginosa (increase in extracellular AK activity)), 1; in test [4] (384-well format, cutoff for positive-scoring molecules 3-fold increase, read-out: AK-based Prestwick Library Screening Results, S. aureus (increase in extracellular AK activity)) it was 1; in test [5] (384-well format, cutoff for positive-scoring molecules 3-fold increase, read-out: AK-based Prestwick Library Screening Results, A. baumannii (increase in extracellular AK activity)) it was 1.1; in test [6] (384-well format, cutoff for positive-scoring molecules 3-fold increase, read-out: AK-based Prestwick Library Screening Results, E. cloacae (increase in extracellular AK activity)), 1.5. In test [7] (384-well format, cutoff for positive-scoring molecules 3-fold increase, read-out: AK-based Prestwick Library Screening Results, E. coli (increase in extracellular AK activity)), the fold induction at 50 µM turned out to be 1.3.

Consider `CC(=O)N[C@@H](CC(C)C)C(=O)O` [N-Acetyl-L-leucine], for which the fold induction at 50 µM in test [1] (planktonic, cutoff for positive-scoring molecules 3-fold increase, read-out: AK-based Prestwick Library Screening Results, K. pneumoniae (fold increase in extracellular AK activity)) is 0.6; in test [2] (planktonic, cutoff for positive-scoring molecules 3-fold increase, read-out: AK-based Prestwick Library Screening Results, E. faecium (fold increase in extracellular AK activity)) it was 0.9; in test [3] (planktonic, cutoff for positive-scoring molecules 3-fold increase, read-out: AK-based Prestwick Library Screening Results, P. aeruginosa (fold increase in extracellular AK activity)), 0.7; in test [4] (planktonic, cutoff for positive-scoring molecules 3-fold increase, read-out: AK-based Prestwick Library Screening Results, S. aureus (fold increase in extracellular AK activity)), 0.7; in test [5] (planktonic, cutoff for positive-scoring molecules 3-fold increase, read-out: AK-based Prestwick Library Screening Results, A. baumannii (fold increase in extracellular AK activity)), 0.7; in test [6] (planktonic, cutoff for positive-scoring molecules 3-fold increase, read-out: AK-based Prestwick Library Screening Results, E. cloacae (fold increase in extracellular AK activity)) it was 0.9. For the same compound, the fold induction at 50 µM in test [7] (planktonic, cutoff for positive-scoring molecules 3-fold increase, read-out: AK-based Prestwick Library Screening Results, E. coli (fold increase in extracellular AK activity)) is 0.7.

For the compound `C[C@H]1[C@H]2CC[C@H]3[C@@H]4CC=C5C[C@@H](N(C)C)CC[C@]5(C)[C@H]4CC[C@]23CN1C` [Conessine], the fold induction at 50 µM in test [1] (setting [15]) came out at 1.2; in test [2] (setting [16]), 1.1; in test [3] (setting [17]) it was 1.2; in test [4] (setting [18]), 1.2; in test [5] (setting [19]), 1.4; in test [6] (setting [20]) it was 1.6. Moreover, the fold induction at 50 µM in test [7] (setting [21]) came out at 1.5.

For the compound `CC(Oc1ccccc1)C(=O)N[C@@H]1C(=O)N2[C@@H]1SC(C)(C)[C@@H]2C(=O)O` (stereo partly shown) [Phenethicillin potassium salt], the fold induction at 50 µM in test [1] (setting [15]) worked out at 0.5; in test [2] (setting [16]) it was 1; in test [3] (setting [17]) it was 0.4; in test [4] (setting [18]), 0.6; in test [5] (setting [19]) it was 0.8; in test [6] (setting [20]), 0.3. Also, in test [7] (setting [21]), the fold induction at 50 µM was found to be 0.5.

On to `COc1ccc(NS(=O)(=O)c2ccc(N)cc2)nn1` [Sulfamethoxypyridazine], for which the fold induction at 50 µM is 0.5 in test [1] (setting [15]); 0.9 in test [2] (setting [16]); 0.3 in test [3] (setting [17]); 0.4 in test [4] (setting [18]); 0.7 in test [5] (setting [19]); 0.3 in test [6] (setting [20]). The fold induction at 50 µM in test [7] (setting [21]) was 0.5.

Turning to `O=C(Nc1ccccc1)OCC(CN1CCCCC1)OC(=O)Nc1ccccc1` (stereo not shown) [Diperodon hydrochloride], the fold induction at 50 µM in test [1] (planktonic K. pneumoniae, 384-well, cutoff for positive-scoring molecules 3-fold increase, read-out: AK-based Prestwick Library Screening Results: K. pneumoniae (increase in extracellular AK activity)) was 0.9; in test [2] (planktonic E. faecium, 384-well, cutoff for positive-scoring molecules 3-fold increase, read-out: AK-based Prestwick Library Screening Results: E. faecium (increase in extracellular AK activity)), 1.1; in test [3] (planktonic P. aeruginosa, 384-well, cutoff for positive-scoring molecules 3-fold increase, read-out: AK-based Prestwick Library Screening Results: P. aeruginosa (increase in extracellular AK activity)), 1.1; in test [4] (planktonic S. aureus, 384-well, cutoff for positive-scoring molecules 3-fold increase, read-out: AK-based Prestwick Library Screening Results: S. aureus (increase in extracellular AK activity)), 1.2; in test [5] (planktonic A. baumannii, 384-well, cutoff for positive-scoring molecules 3-fold increase, read-out: AK-based Prestwick Library Screening Results: A. baumannii (increase in extracellular AK activity)), 1.1; in test [6] (planktonic E. cloacae, 384-well, cutoff for positive-scoring molecules 3-fold increase, read-out: AK-based Prestwick Library Screening Results: E. cloacae (increase in extracellular AK activity)) it was 1.4. Further, the fold induction at 50 µM in test [7] (planktonic E. coli, 384-well, cutoff for positive-scoring molecules 3-fold increase, read-out: AK-based Prestwick Library Screening Results: E. coli (increase in extracellular AK activity)) is 1.4.

With `CC(=O)c1ccc2c(c1)N(CCCN1CCC(CCO)CC1)c1ccccc1S2` [Piperacetazine], the fold induction at 50 µM turned out to be 0.5 in test [1] (setting [8]); 0.9 in test [2] (setting [9]); 0.5 in test [3] (setting [10]); 0.5 in test [4] (setting [11]); 0.6 in test [5] (setting [12]); 0.4 in test [6] (setting [13]). For the same compound, in test [7] (setting [14]), the fold induction at 50 µM amounted to 0.5.

As to `CC(C)[N+]1(C)[C@@H]2CC[C@H]1CC(OC(=O)C(CO)c1ccccc1)C2.[Br-]` (stereo partly shown) [Ipratropium bromide], the “AK-based Prestwick Library Screening Results, K. pneumoniae (increase in extracellular AK activity)” value in test [1] (planktonic K. pneumoniae, […]) is given as 0.6. The “AK-based Prestwick Library Screening Results, E. faecium (increase in extracellular AK activity)” value in test [2] (planktonic E. faecium, […]) is on record as 0.9. Further, in test [3] (planktonic P. aeruginosa, […]), the “AK-based Prestwick Library Screening Results, P. aeruginosa (increase in extracellular AK activity)” value came out at 0.8. Further, the “AK-based Prestwick Library Screening Results, S. aureus (increase in extracellular AK activity)” value in test [4] (planktonic S. aureus, […]) was 0.7. Besides, the “AK-based Prestwick Library Screening Results, A. baumannii (increase in extracellular AK activity)” value in test [5] (planktonic A. baumannii, […]) amounted to 0.6. In addition, the “AK-based Prestwick Library Screening Results, E. cloacae (increase in extracellular AK activity)” value in test [6] (planktonic E. cloacae, […]) came to 0.8. Also, the “AK-based Prestwick Library Screening Results, E. coli (increase in extracellular AK activity)” value in test [7] (planktonic E. coli, […]) is 0.6.

For the compound `CC1=CC(=O)c2ccccc2C1=O` [Menadione], the fold induction at 50 µM was 1 in test [1] (setting [15]); 1.1 in test [2] (setting [16]); 1.2 in test [3] (setting [17]); 1.4 in test [4] (setting [18]); 1 in test [5] (setting [19]); 1.5 in test [6] (setting [20]). For the same compound, the fold induction at 50 µM in test [7] (setting [21]) was found to be 1.
